Reference: article PMC9227781, “Inhibitors of O-Acetylserine Sulfhydrylase with a Cyclopropane-Carboxylic Acid Scaffold Are Effective Colistin Adjuvants in Gram Negative Bacteria” (Pharmaceuticals, 2022)
Read-outs that look alike come from different tables or passages of the source.

Assays:
[1] = tested on: E. coli ATCC 25922; test: MIC by broth microdilution, E. coli; type: cell-based, Escherichia coli; settings: Escherichia coli, ATCC25922; compound alone, MHB, 24 h at 37 °C; read-out: MIC (μg/mL) E.coli ATCC 25922
Experimental: (§1) MIC values were evaluated following CLSI guidelines with some modifications, as referred to in previous work. Twofold dilutions 25.6–0.05 mg/mL of the tested compounds were performed in DMSO in separate 96-well microtiter U-plates (Greiner, Milan, Italy). In a different 96-well microtiter U-plate, for each well of the replicates, 49 µL of broth medium were added. Then, in each well of the plate, one microliter of each compound at variable dilution in DMSO was added. For each test, three independent experiments with three replicates each were performed. Tested reference bacterial strains (E. coli ATCC25922; S. Typhimurium ATCC14028; K. pneumoniae ATCC13883) were brought to the logarithmic phase of growth in MHB medium by incubation at 37 °C for 24 h. After incubation, bacterial suspensions were centrifuged (2000 rpm, 4 °C for 20 min), and then the pellets were resuspended in 100 mM phosphate buffer, pH 7.0, to reach a final bacterial concentration of 10^8 CFU/mL, adjusted by spectrophotometry (OD620nm ranged between 0.08–0.13). The obtained suspensions were further diluted 1:100 in broth medium to reach a bacterial concentration of 10^6 CFU/mL. Fifty µL of the bacterial suspension containing 10^6 CFU/mL were inoculated into each well within 30 min, to obtain a final concentration of 5 × 10^5 CFU/mL in a total volume of 100 µL. The final dilution range tested was 256–0.5 µg/mL. Growth and sterility controls were performed for each strain and for each tested compound. Plates were then incubated for 24 h at 37 °C in a static aerobic atmosphere. After incubation, plates were read by unaided eye with a microtiter reading mirror and then the OD of each well of the plates was measured spectrophotometrically at 620 nm. MIC values were calculated as the arithmetic mean ± standard deviation (SD) of the unaided eye reading and the inhibition of growth for each tested dilution was calculated from the OD values (mean ± SD). A quality control microorganism (E. coli ATCC 25922) was tested periodically to validate the accuracy of the procedure.

[2] = tested on: S. Typhimurium ATCC14028; test: MIC by broth microdilution, S. Typhimurium; type: cell-based, Salmonella enterica serovar Typhimurium; settings: Salmonella enterica; compound alone, MHB, 24 h at 37 °C; read-out: MIC (μg/mL) S. Typhimurium ATCC14028
Experimental: as §1

[3] = tested on: K. pneumoniae ATCC13883; test: MIC by broth microdilution, K. pneumoniae; type: cell-based, Klebsiella pneumoniae; settings: Klebsiella pneumoniae, ATCC13883; compound alone, MHB, 24 h at 37 °C; read-out: MIC (μg/mL) K. pneumoniae ATCC13883
Experimental: as §1

[4] = biological target: T1, StOASS-A (Salmonella typhimurium, UniProt P0A1E3); test: Fluorescence binding assay on purified recombinant StOASS-A; design: species or system S. Typhimurium
T1 construct: His-tag (with TEV site) (cleaved yes); made in house; host or cells: E. coli Rosetta (DE3)
T1 sequence (P0A1E3 whole entry): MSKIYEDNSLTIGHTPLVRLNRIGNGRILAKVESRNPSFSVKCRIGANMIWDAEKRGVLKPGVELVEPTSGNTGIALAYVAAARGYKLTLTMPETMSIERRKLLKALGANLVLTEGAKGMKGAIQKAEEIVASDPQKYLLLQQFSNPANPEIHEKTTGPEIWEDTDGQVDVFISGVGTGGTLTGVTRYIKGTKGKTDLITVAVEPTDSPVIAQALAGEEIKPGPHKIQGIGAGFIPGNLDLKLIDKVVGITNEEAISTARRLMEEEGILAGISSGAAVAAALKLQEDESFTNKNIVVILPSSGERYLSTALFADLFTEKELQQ
Experimental: (§2) The affinity of the compounds for StOASS-A and StOASS-B was determined on the purified recombinant proteins by an in vitro fluorescence binding assay. Measurements were carried out at 20 °C in a 3 mm pathlength quartz microcuvette in 100 mM HEPES, 5% DMSO (Applichem, Darmstadt, Germany), pH 7.0, using a Fluoromax-4 (Horiba Jobin-Yvon, Kyoto, Japan) spectrofluorometer. Emission spectra of solutions containing 0.2–1.0 μM StOASS, upon excitation of the pyridoxal 5′-phosphate cofactor at 412 nm, in the presence of increasing concentrations of compounds were collected; fluorescence intensities at 500 nm were plotted to compound concentration and data were fitted to a binding isotherm: I=I0+ΔI·compound/KD+compound where I is the fluorescence emission intensity at 500 nm in the presence of a given concentration of compound, I0 is the initial fluorescence emission in the absence of ligands, ΔI is the amplitude of the fluorescence emission change and KD is the dissociation constant. When the KD was lower than the protein concentration, data were fitted to the quadratic equation: I=I0+ΔI·OASS+compound+KD−OASS+compound+KD^2−4·OASS·compound/2
(§3) Data were collected in duplicate.
(§4) Esters were tested up to a concentration of 100 μM and no binding was observed.

[5] = biological target: T2, StOASS-B (Salmonella typhimurium, UniProt P29848); test: Fluorescence binding assay on purified recombinant StOASS-B
T2 construct: His-tag (with TEV site) (cleaved yes); made in house; host or cells: E. coli Rosetta (DE3)
T2 sequence (P29848 1-303): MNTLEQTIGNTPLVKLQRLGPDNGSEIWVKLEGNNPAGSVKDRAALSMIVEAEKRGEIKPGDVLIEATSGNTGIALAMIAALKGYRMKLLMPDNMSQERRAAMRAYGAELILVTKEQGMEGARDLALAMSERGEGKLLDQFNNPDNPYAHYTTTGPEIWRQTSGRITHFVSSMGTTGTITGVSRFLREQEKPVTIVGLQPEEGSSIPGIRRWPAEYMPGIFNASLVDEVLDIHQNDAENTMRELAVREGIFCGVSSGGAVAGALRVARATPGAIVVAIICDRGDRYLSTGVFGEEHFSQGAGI
Experimental: as §2, §3, §4

[6] = tested on: MDBK cells; test: Cytotoxicity assay (MTT) on MDBK cells; type: cell-based, bovine; settings: 32, 16, 8 µg/mL; MTT test
Experimental: The cytotoxicity assay was performed using the 3-(4,5-dimethylthiazol-2-yl)-2,5-diphenyltetrazolium bromide (MTT) test, following the procedure used by Donofrio et al.. MDBK cells were cultured on microtiter tissue culture plates in DMEM medium for 24 h at 37 °C in the presence of 5% CO2. After incubation, when the cell monolayer was at confluence, an aliquot of 1 µL of UPAR415 in DMSO at different concentrations was added in each well, containing a volume of 100 µL of DMEM medium and MDBK cells, and then the plates were reincubated at the same conditions. After incubation, 10 µL of MTT at 200 mg/mL (3-(4,5-dimethylthiazol-2-yl)-2,5-diphenyltetrazolium bromide) was added to each well and incubated at 37 °C for 6 h. At the end of the incubation, 100 µL of the solubilization solution (10% SDS in 0.01 M HCl) was added to each well and then incubated overnight. The MTT compound, a yellow tetrazolium salt, is reduced by mitochondrial enzymes (succinate dehydrogenase) of metabolically active eukaryotic cells to insoluble formazan crystals. In the presence of metabolically active cells, after the addition of a detergent solution (10% SDS in […]) that allows the formazan to be released from the cells, a violet color is seen in the medium. Instead, in the presence of non-viable cells, MTT is not reduced to formazan and therefore the solution will remain yellow.
After incubation, plates were read with a spectrophotometer at 620 nm. Positive controls (PC)—without any compounds—and PCs with 1% DMSO were performed for each plate and three replicates for two independent experiments were performed for each assay.

[7] = 20 °C, 100 mM HEPES, 5% DMSO, pH 7.0, racemic mixture, esters tested up to 100 μM, read-out: KD (μM) OASS-A
[8] = 20 °C, 100 mM HEPES, 5% DMSO, pH 7.0, racemic mixture, esters tested up to 100 μM

Row | Structure (SMILES) | MIC [1] [µg/mL] | MIC [2] [µg/mL] | MIC [3] [µg/mL] | Kd [4, 7] [µM] | Kd [5] [µM] | KD (μM) OASS-A [4, 8] | KD (μM) OASS-B [5, 8] | Toxicity on viability of MDBK cells [6] | Kd [4] [µM] | Kd ([5]; 20 °C, 100 mM HEPES, 5% DMSO, pH 7.0, racemic mixture, esters tested up to 100 μM, read-out: KD (μM) OASS-B) [µM]
1 | CCOC(=O)C1(Cc2ccc(C)cc2)CC1c1cccc(-c2cnc(N)nc2)c1 (centres unmarked) [Compound 8a, ethyl 2-(3-(2-aminopyrimidin-5-yl)phenyl)-1-(4-methylbenzyl)cyclopropanecarboxylate] | > 512 | > 512 | > 512 |  |  |  |  |  |  | 
2 | Cc1ccc(C[C@@]2(C(=O)O)C[C@H]2c2cccc(-c3ccccc3)c2)cc1 (relative stereo) [Compound 9d, trans-2-([1,1′-biphenyl]-3-yl)-1-(4-methylbenzyl)cyclopropanecarboxylic acid] | > 512 | > 512 | > 512 | 2.51 ± 0.61 | 6.8 ± 1.1 |  |  |  |  | 
3 | Cc1ccc(C[C@@]2(C(=O)O)C[C@H]2c2cccc(-c3cccc(F)c3)c2)cc1 (relative stereo) [Compound 9f, trans-2-(3′-fluoro-[1,1′-biphenyl]-3-yl)-1-(4-methylbenzyl)cyclopropanecarboxylic acid] | > 512 | > 512 | > 512 | 0.051 ± 0.004 | 1.45 ± 0.31 | low nanomolar range |  |  |  | 
4 | Cc1ccc(C[C@@]2(C(=O)O)C[C@H]2c2cccc(-c3cnc(N)nc3)c2)cc1 (relative stereo) [Compound 9a, trans-2-(3-(2-aminopyrimidin-5-yl)phenyl)-1-(4-methylbenzyl)cyclopropanecarboxylic acid] | > 512 | > 512 | > 512 | 0.57 ± 0.16 | 1.29 ± 0.09 |  |  |  |  | 
5 | CCOC(=O)C1(Cc2ccc(C)cc2)CC1c1cccc(-c2c[nH]nc2C)c1 (centres unmarked) [Compound 8b, ethyl 2-(3-(3-methyl-1H-pyrazol-4-yl)phenyl)-1-(4-methylbenzyl)cyclopropanecarboxylate] | > 512 | > 512 | > 512 |  |  | No binding | No binding | high toxicity profiles |  | 
6 | CCOC(=O)[C@]1(Cc2ccc(C)cc2)C[C@H]1c1cccc(N2CCOCC2)c1 (relative stereo) [Compound 12g, trans-ethyl 1-(4-methylbenzyl)-2-(3-morpholinophenyl)cyclopropanecarboxylate] | > 512 | > 512 | > 512 |  |  | No binding | No binding | proliferative effects |  | 
7 | Cc1ccc(C[C@@]2(C(=O)O)C[C@H]2c2cccc(-c3c[nH]nc3C)c2)cc1 (relative stereo) [Compound 9b, trans-2-(3-(3-methyl-1H-pyrazol-4-yl)phenyl)-1-(4-methylbenzyl)cyclopropanecarboxylic acid] | > 512 | > 512 | > 512 | 1.86 ± 0.76 | 2.63 ± 0.04 |  |  |  |  | 
8 | Cc1ccc(C[C@@]2(C(=O)O)C[C@H]2c2cccc(N3CCOCC3)c2)cc1 (relative stereo) [Compound 13g, trans-1-(4-methylbenzyl)-2-(3-morpholinophenyl)cyclopropanecarboxylic acid] | > 512 | > 512 | > 512 | 0.1 ± 0.01 | 3.86 ± 0.29 |  |  |  |  | 
9 | Cc1ccc(C[C@@]2(C(=O)O)C[C@H]2c2cccc(-c3cn[nH]c3)c2)cc1 (relative stereo) [Compound 9c, trans-2-(3-(1H-pyrazol-4-yl)phenyl)-1-(4-methylbenzyl)cyclopropanecarboxylic acid] | > 512 | > 512 | > 512 | 1.01 ± 0.38 | 3.05 ± 0.18 |  |  |  |  | 
10 | Cc1ccc(C[C@@]2(C(=O)O)C[C@H]2c2cccc(N3CCN(C)CC3)c2)cc1 (relative stereo) [Compound 21j, trans-1-(4-methylbenzyl)-2-(3-(4-methylpiperazin-1-yl)phenyl)cyclopropanecarboxylic acid] | > 512 | > 512 | > 512 | 0.25 ± 0.06 | 23.6 ± 4.5 | good activity | detrimental effect |  |  | 
11 | Cc1ccc(C[C@@]2(C(=O)O)C[C@H]2c2cccc(-c3cc(O)cc(F)c3)c2)cc1 (relative stereo) [Compound 9e, trans-2-(3′-fluoro-5′-hydroxy-[1,1′-biphenyl]-3-yl)-1-(4-methylbenzyl)cyclopropanecarboxylic acid] | > 512 | > 512 | > 512 | 0.035 ± 0.003 | 0.61 ± 0.08 | low nanomolar range |  |  |  | 
12 | Cc1ccc(C[C@@]2(C(=O)O)C[C@H]2c2cccc(N3CCNCC3)c2)cc1 (relative stereo) [Compound 21i, trans-1-(4-methylbenzyl)-2-(3-(piperazin-1-yl)phenyl)cyclopropanecarboxylic acid] | > 512 | > 512 | > 512 |  |  | good activity | detrimental effect |  | 0.45 ± 0.09 | 83.8 ± 16.1
13 | CCOC(=O)[C@]1(Cc2ccc(C)cc2)C[C@H]1c1cccc(-c2ccccc2)c1 (relative stereo) [Compound 8d, trans-ethyl 2-([1,1′-biphenyl]-3-yl)-1-(4-methylbenzyl)cyclopropanecarboxylate] | > 512 | > 512 | > 512 |  |  | No binding | No binding |  |  | 
